Earlier results as cited in patent US20100279974A1, “Nucleosides With Non-Natural Bases as Anti-Viral Agents” (priority 2005, published 2010).

Settings: in vivo

| Compound | antiviral activity |
| --- | --- |
| NC(=O)c1nccn(C2OC(COP(=O)(O)OP(=O)(O)OP(=O)(O)O)C(O)C2O)c1=O (centres unmarked) | exhibits antiviral activity in vivo |
| NC(=O)c1nccn([C@@H]2O[C@H](CO)[C@@H](O)[C@H]2O)c1=O [non-phosphorylated nucleoside form] | appears to be inactive |
